The term EC50 denotes the concentration that produces a half-maximal response.

Each structure is given as a SMILES string.

The target in the test is T1, S1P1 receptor (Homo sapiens, UniProt P21453).
T1 construct: TEV protease site; Gal4-VP16 transcription factor; expressed in transfected cells; host or cells: Tango GPCR-bla U2OS parental cell line (EDG1-bla/U2OS)
T1 sequence (P21453 whole entry, the tested form may be a part): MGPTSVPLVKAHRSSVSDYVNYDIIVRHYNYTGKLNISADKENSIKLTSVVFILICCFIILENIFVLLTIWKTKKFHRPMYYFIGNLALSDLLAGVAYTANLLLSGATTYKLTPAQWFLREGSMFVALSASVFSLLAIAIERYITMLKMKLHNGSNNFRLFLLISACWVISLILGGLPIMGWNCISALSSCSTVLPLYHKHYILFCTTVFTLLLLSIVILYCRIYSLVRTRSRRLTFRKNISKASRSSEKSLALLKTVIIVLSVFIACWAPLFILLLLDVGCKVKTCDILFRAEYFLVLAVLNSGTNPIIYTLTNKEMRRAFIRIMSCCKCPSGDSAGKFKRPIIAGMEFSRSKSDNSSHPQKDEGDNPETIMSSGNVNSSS
Briefly: S1P1 Tango Assay. The test is classed as cell-based. To be noted: agonist activity, recombinant EDG1-bla/U2OS cells, beta-lactamase FRET readout. The text has this:
The potencies and efficacies of the compounds of this invention for the S1P1 receptor can be determined by S1P1 Tango assay performed on the human cloned receptor as described herein.
Recombinant EDG1-bla/U2OS cells (contain the human Endothelial Differentiation Gene 1 (EDG1) linked to a TEV protease site and a Gal4-VP16 transcription factor stably integrated into the Tango GPCR-bla U2OS parental cell line) were harvested from growth medium and passaged into assay medium (Invitrogen Freestyle Expression Medium). The cells were starved for 24 hours at 37° C., 5% CO2, harvested and resuspended in assay medium at a density of ˜200,000 cells/ml. All test compounds were dissolved in DMSO at a concentration of 10 mM and were prepared in 100% DMSO to provide 10 point dose response curves. Test compounds prepared by Bravo (Velocity11) were added to wells in columns 2-11 and 13-22; DMSO was added to wells in columns 12 and 23 as unstimulated controls and assay medium was added to wells in columns 1 and 24 as cell-free controls. An S1P1 agonist was added to wells in row 2, columns 2-11 as stimulated controls and test compounds were added to wells in row 2, columns 13-22 and rows 3-15, columns 2-11/13-22 (row 1 and 16 were empty and not used). Compounds in solution were added to the assay plate (Greiner 781090) using an Echo (Labcyte) dose-response program (50 nl/well). The unstimulated and cell-free controls were loaded with 50 nl/well pure DMSO to ensure that the DMSO concentration was constant across the plate for all assays.
50 μl of the cell suspension was added to each well in columns 2-23 of the plate (˜10,000 cells per well). 50 μl of assay medium was added to each well in the cell-free controls (columns 1 and 24). The cells were incubated overnight at 37° C./5% CO2. 10 μl of 6× substrate mixture (LiveBLAzer™-FRET BIG substrate (CCF4-AM) Cat # K1096 from Invitrogen, Inc.) was added to each well using Bravo and the plates incubated at room temperature for 2 h in the dark. The plate was finally read on EnVision for two emission channels (460 nm and 530 nm).
The blue/green emission ratio (460 nm/530 nm) was calculated for each well, by dividing the background-subtracted Blue emission values by the background-subtracted Green emission values. The dose response curve is based on sigmoidal dose-response model. All ratio data was normalized based upon the maximum emission ratio of positive control and minimum emission ratio of negative control (DMSO) on each plate. The intrinsic activity (IA) of each compound would be the normalized percentage of its maximum response after curve fitting.
On to `CC(C)Oc1ccc(-c2nc(-c3cccc4c3cnn4CC(O)C(=O)O)no2)cc1Cl` (single isomer, unassigned) [Example 9, Lithium 3-[4-(5-{3-chloro-4-[(1-methylethyl)oxy]phenyl}-1,2,4-oxadiazol-3-yl)-1H-indazol-1-yl]-2-hydroxypropanoate], for which the EC50 was 1 to 10 nM. As for `CC(C)Oc1ccc(-c2nc(-c3ccc4[nH]ncc4c3)no2)cc1Cl` [Example 1, 5-(5-{3-Chloro-4-[(1-methylethyl)oxy]phenyl}-1,2,4-oxadiazol-3-yl)-1H-indazole], the EC50 is at most 1 nM.

Turning to `CC(C)Oc1ccc(-c2nc(-c3ccc4[nH]ncc4c3)no2)cc1C#N` [Example 2, 5-[3-(1H-Indazol-5-yl)-1,2,4-oxadiazol-5-yl]-2-[(1-methylethyl)oxy]benzonitrile], the EC50 was 1 to 10 nM. Regarding `CC(C)Oc1ccc(-c2nc(-c3cccc4[nH]ncc34)no2)cc1C#N` [Example 3, 5-[3-(1H-Indazol-4-yl)-1,2,4-oxadiazol-5-yl]-2-[(1-methylethyl)oxy]benzonitrile], the EC50 was at most 1 nM.

Take `CC(C)Oc1ccc(-c2nc(-c3cccc4[nH]ncc34)no2)cc1Cl` [Example 4, 4-(5-{3-Chloro-4-[(1-methylethyl)oxy]phenyl}-1,2,4-oxadiazol-3-yl)-1H-indazole]: the EC50 was 10 to 100 nM. With `CC(C)Oc1ccc(-c2nc(-c3cccc4c3cnn4CC(C)C(=O)O)no2)cc1Cl` (centres unmarked) [Example 5, 3-[4-(5-{3-Chloro-4-[(1-methylethyl)oxy]phenyl}-1,2,4-oxadiazol-3-yl)-1H-indazol-1-yl]-2-methylpropanoic acid], the EC50 was 10 to 100 nM. For `CC(C)Oc1ccc(-c2nc(-c3cccc4c3cnn4CCCCC(=O)O)no2)cc1Cl` [Example 6, 5-[4-(5-{3-Chloro-4-[(1-methylethyl)oxy]phenyl}-1,2,4-oxadiazol-3-yl)-1H-indazol-1-yl]pentanoic acid], the concentration giving a half-maximal response (EC50) is 10 to 100 nM. On to `CC(C)Oc1ccc(-c2nc(-c3cccc4c3cnn4C3(CC(=O)O)COC3)no2)cc1Cl` [Example 8, {3-[4-(5-{3-Chloro-4-[(1-methylethyl)oxy]phenyl}-1,2,4-oxadiazol-3-yl)-1H-indazol-1-yl]-3-oxetanyl}acetic acid], for which the EC50 was 10 to 100 nM. As for `CC(C)Oc1ncc(-c2nc(-c3ccc4c(cnn4CCC(=O)O)c3)no2)cc1Cl` [Example 10, 3-[5-(5-{5-Chloro-6-[(1-methylethyl)oxy]-3-pyridinyl}-1,2,4-oxadiazol-3-yl)-1H-indazol-1-yl]propanoic acid], the EC50 was 10 to 100 nM. Take `CC(C)Oc1ncc(-c2nc(-c3ccc4[nH]ncc4c3)no2)cc1Cl` [Example 11, 5-(5-{5-Chloro-6-[(1-methylethyl)oxy]-3-pyridinyl}-1,2,4-oxadiazol-3-yl)-1H-indazole]: the EC50 is 10 to 100 nM.

`Cc1c(-c2noc(-c3cnc(OC(C)C)c(Cl)c3)n2)ccc2c1cnn2CCCC(=O)O` [Example 13, 4-[5-(5-{5-Chloro-6-[(1-methylethyl)oxy]-3-pyridinyl}-1,2,4-oxadiazol-3-yl)-4-methyl-1H-indazol-1-yl]butanoic acid]: the EC50 is 1 to 10 nM.

For the compound `CC(C)Oc1ncc(-c2nc(-c3ccc4c(cnn4CCCC(=O)O)c3)no2)cc1C#N` [Example 14, 4-[5-(5-{5-Cyano-6-[(1-methylethyl)oxy]-3-pyridinyl}-1,2,4-oxadiazol-3-yl)-1H-indazol-1-yl]butanoic acid], the EC50 is at most 1 nM. Take `CC(C)Oc1ncc(-c2nc(-c3cc4cnn(CCCC(=O)O)c4cc3F)no2)cc1Cl` [Example 17, 4-[5-(5-{5-Chloro-6-[(1-methylethyl)oxy]-3-pyridinyl}-1,2,4-oxadiazol-3-yl)-6-fluoro-1H-indazol-1-yl]butanoic acid]: the EC50 is 10 to 100 nM.

Take `CC(C)Oc1ncc(-c2nc(-c3cc4cn[nH]c4cc3Cl)no2)cc1Cl` [Example 19, 6-Chloro-5-(5-{5-chloro-6-[(1-methylethyl)oxy]-3-pyridinyl}-1,2,4-oxadiazol-3-yl)-1H-indazole]: the EC50 is 1 to 10 nM.

(Values after patent US20120283297A1, “OXADIAZOLE SUBSTITUTED INDAZOLE DERIVATIVES FOR USE AS SPHINGOSINE 1-PHOSPHATE 1 (S1P1) RECEPTOR AGONISTS” (GLAXO WELLCOME HOUSE, priority 2009, published 2012).)
